Reference: the kinase profiling compilation of Christmann-Franck et al. (2016)

Legend:
Assay in all cases: SelectScreen, TR FRET
Settings in all cases: compound 5.0 µM
CHEK1 (human) = CHEK1 (human) (UniProt O14757)
FGFR2 (human) = FGFR2 (human) (UniProt P21802)
PLK2 (human) = PLK2 (human) (UniProt Q9NYY3)
JAK3 JH1 JH2 (human) = JAK3 JH1 JH2 (human) (UniProt P52333)
LYN (human) = LYN (human) (UniProt P07948)
EPHB4 (human) = EPHB4 (human) (UniProt P54760)
CSNK1E (human) = CSNK1E (human) (UniProt P49674)
[1] = system: PDGFRA (human), P16234 [D842V]
CLK1 (human) = CLK1 (human) (UniProt P49759)
MATK (human) = MATK (human) (UniProt P42679)
ERBB4 (human) = ERBB4 (human) (UniProt Q15303)
JAK2 JH1 JH2 (human) = JAK2 JH1 JH2 (human) (UniProt O60674)
ABL1 (human) = ABL1 (human) (UniProt P00519)
RPS6KA2 KD1 KD2 (human) = RPS6KA2 KD1 KD2 (human) (UniProt Q15349)
BMX (human) = BMX (human) (UniProt P51813)
ERBB2 (human) = ERBB2 (human) (UniProt P04626)
[2] = system: KIT (human), P10721 [T670I]
STK3 (human) = STK3 (human) (UniProt Q13188)
IKBKB (human) = IKBKB (human) (UniProt O14920)
DAPK3 (human) = DAPK3 (human) (UniProt O43293)
SGK2 (human) = SGK2 (human) (UniProt Q9HBY8)
PAK3 (human) = PAK3 (human) (UniProt O75914)
ADRBK2 (human) = ADRBK2 (human) (UniProt P35626)
PRKG2 (human) = PRKG2 (human) (UniProt Q13237)
RPS6KA5 KD1 KD2 (human) = RPS6KA5 KD1 KD2 (human) (UniProt O75582)
CSNK1G2 (human) = CSNK1G2 (human) (UniProt P78368)
EPHA8 (human) = EPHA8 (human) (UniProt P29322)
MAP4K2 (human) = MAP4K2 (human) (UniProt Q12851)
EPHB1 (human) = EPHB1 (human) (UniProt P54762)
PRKCE (human) = PRKCE (human) (UniProt Q02156)
STK25 (human) = STK25 (human) (UniProt O00506)
PLK1 (human) = PLK1 (human) (UniProt P53350)
PRKCH (human) = PRKCH (human) (UniProt P24723)
PLK3 (human) = PLK3 (human) (UniProt Q9H4B4)
FLT1 (human) = FLT1 (human) (UniProt P17948)
CDK1 CCNB1 (human) = CDK1 CCNB1 (human) (UniProt P06493+P14635)
TSSK2 (human) = TSSK2 (human) (UniProt Q96PF2)
MERTK (human) = MERTK (human) (UniProt Q12866)
PHKG1 (human) = PHKG1 (human) (UniProt Q16816)
PAK6 (human) = PAK6 (human) (UniProt Q9NQU5)
Sequence of PAK6 (human) (Q9NQU5 whole entry, looked up): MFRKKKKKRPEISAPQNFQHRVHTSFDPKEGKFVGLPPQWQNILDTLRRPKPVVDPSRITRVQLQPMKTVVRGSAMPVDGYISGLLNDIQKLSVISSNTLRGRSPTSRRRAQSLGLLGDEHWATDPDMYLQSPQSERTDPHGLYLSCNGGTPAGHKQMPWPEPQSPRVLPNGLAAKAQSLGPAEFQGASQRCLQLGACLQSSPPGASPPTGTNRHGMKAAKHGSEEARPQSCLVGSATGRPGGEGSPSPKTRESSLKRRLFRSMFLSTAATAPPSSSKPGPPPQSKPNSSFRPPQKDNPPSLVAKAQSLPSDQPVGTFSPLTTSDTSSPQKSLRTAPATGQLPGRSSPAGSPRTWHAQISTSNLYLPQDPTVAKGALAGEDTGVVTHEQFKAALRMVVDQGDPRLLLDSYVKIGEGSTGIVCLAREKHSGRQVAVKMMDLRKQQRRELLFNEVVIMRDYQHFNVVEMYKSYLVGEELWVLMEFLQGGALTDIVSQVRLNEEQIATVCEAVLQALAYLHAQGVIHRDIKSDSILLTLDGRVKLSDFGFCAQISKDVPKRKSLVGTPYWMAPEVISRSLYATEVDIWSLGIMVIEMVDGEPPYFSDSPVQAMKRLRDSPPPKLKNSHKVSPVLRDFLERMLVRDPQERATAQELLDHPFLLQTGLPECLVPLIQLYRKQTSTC

Sequence of TSSK2 (human) (Q96PF2 whole entry, looked up): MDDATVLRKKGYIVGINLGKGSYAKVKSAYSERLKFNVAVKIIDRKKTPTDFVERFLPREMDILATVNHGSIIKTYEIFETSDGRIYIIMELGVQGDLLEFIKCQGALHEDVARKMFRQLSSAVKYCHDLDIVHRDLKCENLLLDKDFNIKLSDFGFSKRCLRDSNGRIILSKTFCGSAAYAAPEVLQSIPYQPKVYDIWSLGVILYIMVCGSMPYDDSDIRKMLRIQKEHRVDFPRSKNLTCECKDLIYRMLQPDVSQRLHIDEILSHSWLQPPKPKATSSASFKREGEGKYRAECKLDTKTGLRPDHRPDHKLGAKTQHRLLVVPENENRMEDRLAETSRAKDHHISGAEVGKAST
Sequence of MAP4K2 (human) (Q12851 whole entry, looked up): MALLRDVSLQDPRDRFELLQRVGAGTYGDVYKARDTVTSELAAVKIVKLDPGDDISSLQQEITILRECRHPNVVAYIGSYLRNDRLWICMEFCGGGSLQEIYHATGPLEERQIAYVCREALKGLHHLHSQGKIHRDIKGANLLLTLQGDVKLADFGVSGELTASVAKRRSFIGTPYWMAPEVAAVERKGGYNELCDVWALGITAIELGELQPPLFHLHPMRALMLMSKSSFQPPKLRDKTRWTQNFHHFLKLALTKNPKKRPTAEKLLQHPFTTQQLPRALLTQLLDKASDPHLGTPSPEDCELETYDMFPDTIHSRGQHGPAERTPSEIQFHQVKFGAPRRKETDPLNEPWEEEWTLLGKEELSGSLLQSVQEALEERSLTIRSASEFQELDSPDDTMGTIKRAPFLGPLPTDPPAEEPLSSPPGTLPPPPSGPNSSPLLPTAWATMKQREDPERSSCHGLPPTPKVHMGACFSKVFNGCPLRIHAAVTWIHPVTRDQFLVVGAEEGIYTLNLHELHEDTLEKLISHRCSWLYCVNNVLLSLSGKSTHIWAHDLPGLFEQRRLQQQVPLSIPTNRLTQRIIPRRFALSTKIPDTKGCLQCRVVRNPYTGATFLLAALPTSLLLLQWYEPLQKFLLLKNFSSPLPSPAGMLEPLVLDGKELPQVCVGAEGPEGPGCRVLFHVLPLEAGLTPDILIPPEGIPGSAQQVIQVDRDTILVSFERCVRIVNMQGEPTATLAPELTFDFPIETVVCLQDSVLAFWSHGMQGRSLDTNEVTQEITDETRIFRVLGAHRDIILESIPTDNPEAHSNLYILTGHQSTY
Sequence of ERBB2 (human) (P04626 whole entry, looked up): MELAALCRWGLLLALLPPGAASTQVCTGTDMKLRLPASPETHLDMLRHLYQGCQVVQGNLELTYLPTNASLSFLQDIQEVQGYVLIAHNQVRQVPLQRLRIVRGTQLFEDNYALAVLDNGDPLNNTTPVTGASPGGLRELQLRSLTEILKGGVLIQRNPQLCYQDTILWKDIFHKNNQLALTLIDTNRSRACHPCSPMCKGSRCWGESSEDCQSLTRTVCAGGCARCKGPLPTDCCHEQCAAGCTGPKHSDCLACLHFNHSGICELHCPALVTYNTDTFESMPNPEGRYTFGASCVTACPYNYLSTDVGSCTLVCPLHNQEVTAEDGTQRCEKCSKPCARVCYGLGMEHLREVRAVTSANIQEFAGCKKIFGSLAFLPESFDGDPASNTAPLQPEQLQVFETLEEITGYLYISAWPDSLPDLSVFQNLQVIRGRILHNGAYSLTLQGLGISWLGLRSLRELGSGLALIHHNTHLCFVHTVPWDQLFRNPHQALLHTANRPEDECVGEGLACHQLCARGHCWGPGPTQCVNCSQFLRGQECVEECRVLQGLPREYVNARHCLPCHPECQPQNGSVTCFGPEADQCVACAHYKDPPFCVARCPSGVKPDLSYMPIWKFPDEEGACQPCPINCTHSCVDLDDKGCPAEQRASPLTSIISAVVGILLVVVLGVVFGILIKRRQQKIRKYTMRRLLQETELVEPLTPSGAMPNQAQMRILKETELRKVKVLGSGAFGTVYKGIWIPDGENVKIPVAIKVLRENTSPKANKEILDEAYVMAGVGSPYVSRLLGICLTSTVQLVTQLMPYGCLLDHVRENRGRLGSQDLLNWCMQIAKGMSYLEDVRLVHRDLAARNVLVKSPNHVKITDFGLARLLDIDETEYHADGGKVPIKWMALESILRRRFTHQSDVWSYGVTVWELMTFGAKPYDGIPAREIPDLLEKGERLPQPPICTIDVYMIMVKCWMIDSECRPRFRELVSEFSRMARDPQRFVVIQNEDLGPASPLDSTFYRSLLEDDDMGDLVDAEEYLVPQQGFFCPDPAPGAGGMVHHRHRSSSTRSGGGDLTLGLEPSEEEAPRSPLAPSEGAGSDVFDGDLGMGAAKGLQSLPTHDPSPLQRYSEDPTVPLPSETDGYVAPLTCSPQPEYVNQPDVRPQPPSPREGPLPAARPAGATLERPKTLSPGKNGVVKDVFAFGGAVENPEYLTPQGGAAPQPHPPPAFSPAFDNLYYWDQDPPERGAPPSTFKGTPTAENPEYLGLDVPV
Sequence of PRKCH (human) (P24723 whole entry, looked up): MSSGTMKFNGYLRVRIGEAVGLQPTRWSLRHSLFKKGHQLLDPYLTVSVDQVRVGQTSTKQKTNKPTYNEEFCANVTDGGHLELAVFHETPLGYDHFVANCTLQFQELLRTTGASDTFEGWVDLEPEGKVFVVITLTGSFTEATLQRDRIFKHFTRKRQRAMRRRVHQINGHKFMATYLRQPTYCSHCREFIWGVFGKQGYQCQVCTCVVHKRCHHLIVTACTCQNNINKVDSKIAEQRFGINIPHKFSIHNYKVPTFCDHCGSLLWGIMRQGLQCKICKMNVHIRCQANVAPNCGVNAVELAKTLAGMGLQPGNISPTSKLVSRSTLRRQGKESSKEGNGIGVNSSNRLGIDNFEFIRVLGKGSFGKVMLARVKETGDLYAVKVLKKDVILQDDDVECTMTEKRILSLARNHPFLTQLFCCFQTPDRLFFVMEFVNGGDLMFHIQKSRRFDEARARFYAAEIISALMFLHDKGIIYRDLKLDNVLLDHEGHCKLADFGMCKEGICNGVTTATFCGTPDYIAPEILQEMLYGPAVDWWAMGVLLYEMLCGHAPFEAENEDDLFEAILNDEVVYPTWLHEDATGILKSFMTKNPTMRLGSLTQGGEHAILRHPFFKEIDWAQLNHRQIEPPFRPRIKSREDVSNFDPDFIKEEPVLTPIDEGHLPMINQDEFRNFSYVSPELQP
Sequence of PLK1 (human) (P53350 whole entry, looked up): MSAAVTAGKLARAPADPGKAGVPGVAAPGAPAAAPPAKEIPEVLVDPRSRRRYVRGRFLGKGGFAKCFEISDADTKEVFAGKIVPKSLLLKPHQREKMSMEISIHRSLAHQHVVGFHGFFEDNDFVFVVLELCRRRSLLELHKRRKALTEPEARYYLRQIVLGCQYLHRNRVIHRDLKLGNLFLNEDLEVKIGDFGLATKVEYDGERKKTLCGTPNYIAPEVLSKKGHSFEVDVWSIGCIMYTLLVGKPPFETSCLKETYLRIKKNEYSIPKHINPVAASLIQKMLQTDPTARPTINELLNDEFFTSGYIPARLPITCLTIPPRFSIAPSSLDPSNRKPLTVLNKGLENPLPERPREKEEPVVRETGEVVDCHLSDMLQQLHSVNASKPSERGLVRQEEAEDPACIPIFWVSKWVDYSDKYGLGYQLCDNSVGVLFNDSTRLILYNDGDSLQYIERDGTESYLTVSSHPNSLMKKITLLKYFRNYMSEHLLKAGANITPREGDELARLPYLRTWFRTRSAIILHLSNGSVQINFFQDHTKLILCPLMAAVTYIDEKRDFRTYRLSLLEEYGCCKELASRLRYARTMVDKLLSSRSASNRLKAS
Sequence of PAK3 (human) (O75914 whole entry, looked up): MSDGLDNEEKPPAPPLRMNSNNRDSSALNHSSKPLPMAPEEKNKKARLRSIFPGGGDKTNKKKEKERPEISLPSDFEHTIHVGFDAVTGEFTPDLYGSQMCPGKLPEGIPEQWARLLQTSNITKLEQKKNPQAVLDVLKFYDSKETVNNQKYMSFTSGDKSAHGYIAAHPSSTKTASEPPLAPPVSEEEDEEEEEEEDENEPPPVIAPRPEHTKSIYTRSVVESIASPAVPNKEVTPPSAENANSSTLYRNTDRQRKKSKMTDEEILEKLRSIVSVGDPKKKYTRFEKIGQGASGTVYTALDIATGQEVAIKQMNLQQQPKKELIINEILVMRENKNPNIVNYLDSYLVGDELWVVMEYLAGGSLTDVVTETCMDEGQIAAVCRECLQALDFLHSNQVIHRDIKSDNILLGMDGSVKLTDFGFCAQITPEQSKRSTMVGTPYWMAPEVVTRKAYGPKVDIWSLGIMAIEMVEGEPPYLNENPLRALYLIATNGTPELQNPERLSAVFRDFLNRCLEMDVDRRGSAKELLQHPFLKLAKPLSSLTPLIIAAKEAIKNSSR

Question: Nc1cc(C(F)(F)F)c(-c2cc(N3CCOCC3)nc(N3CCOCC3)n2)cn1 was tested. Which inhibition (CHEK1 (human)) did it give?
Answer: 3%

Question: What about the inhibition (FGFR2 (human)) of the same compound?
Answer: 2%

Question: And the inhibition (PLK2 (human))?
Answer: -2%

Question: What about the inhibition (JAK3 JH1 JH2 (human)) of the same compound?
Answer: 7%

Question: What about the inhibition (LYN (human)) of the same compound?
Answer: 6%

Question: What about the inhibition (EPHB4 (human)) of the same compound?
Answer: -4%

Question: And the inhibition (CSNK1E (human))?
Answer: 11%

Question: What about the inhibition [1] of the same compound?
Answer: 1%

Question: What about the inhibition (CLK1 (human)) of the same compound?
Answer: 32%

Question: What about the inhibition (MATK (human)) of the same compound?
Answer: 0%

Question: What about the inhibition (ERBB4 (human)) of the same compound?
Answer: 10%

Question: What about the inhibition (JAK2 JH1 JH2 (human)) of the same compound?
Answer: 18%

Question: And the inhibition (ABL1 (human))?
Answer: 3%

Question: What about the inhibition (RPS6KA2 KD1 KD2 (human)) of the same compound?
Answer: 4%

Question: And the inhibition (BMX (human))?
Answer: 3%

Question: What about the inhibition (ERBB2 (human)) of the same compound?
Answer: -4%

Question: What about the inhibition [2] of the same compound?
Answer: 13%

Question: What about the inhibition (STK3 (human)) of the same compound?
Answer: 5%

Question: And the inhibition (IKBKB (human))?
Answer: -2%

Question: And the inhibition (DAPK3 (human))?
Answer: 1%

Question: And the inhibition (SGK2 (human))?
Answer: 10%

Question: And the inhibition (PAK3 (human))?
Answer: -1%

Question: And the inhibition (ADRBK2 (human))?
Answer: 2%

Question: And the inhibition (PRKG2 (human))?
Answer: 10%

Question: What about the inhibition (RPS6KA5 KD1 KD2 (human)) of the same compound?
Answer: 8%

Question: What about the inhibition (CSNK1G2 (human)) of the same compound?
Answer: 0%

Question: And the inhibition (EPHA8 (human))?
Answer: 3%

Question: And the inhibition (MAP4K2 (human))?
Answer: 6%

Question: What about the inhibition (EPHB1 (human)) of the same compound?
Answer: 3%

Question: And the inhibition (PRKCE (human))?
Answer: 2%

Question: What about the inhibition (STK25 (human)) of the same compound?
Answer: 6%

Question: And the inhibition (PLK1 (human))?
Answer: 1%

Question: And the inhibition (PRKCH (human))?
Answer: 4%

Question: And the inhibition (PLK3 (human))?
Answer: 1%

Question: What about the inhibition (FLT1 (human)) of the same compound?
Answer: 2%

Question: What about the inhibition (CDK1 CCNB1 (human)) of the same compound?
Answer: 9%

Question: And the inhibition (TSSK2 (human))?
Answer: -6%

Question: What about the inhibition (MERTK (human)) of the same compound?
Answer: 3%

Question: What about the inhibition (PHKG1 (human)) of the same compound?
Answer: 11%

Question: And the inhibition (PAK6 (human))?
Answer: 0%
